{"source": "patent US20110223222A1", "about": "“Antiperspirant Compositions and Methods for Reducing Perspiration in Humans” (priority 2008, published 2011)", "key": {"[1]": {"test_system": "axillae of healthy female volunteers", "assay": "Antiperspirant efficacy, FDA hotroom protocol, gravimetric sweat collection", "format": "in vivo, human", "settings": "after four days of once-daily topical treatment, D4 vs D1 baseline", "method": "The antiperspirant efficacy and safety of investigated compounds were tested pursuant to protocol prescribed by the Food and Drug Administration, […] (Guidelines for Effectiveness Testing of OTC Antiperspirant Drug Products, 2004). The clinical study further conformed to Normative Resolution 196/96, CN/MS. The clinical study was divided into three tests and conducted with among at least thirty healthy female volunteers per test. They were between the ages of 18 and 50. The study was single-center, randomized, controlled, double blind assessment of the safety, tolerability and antiperspirant efficacy of TRPM8 agonists when applied to the axillae of healthy female volunteers. Before proceeding with the testing, all the volunteers were submitted to a “rest period” of 17 days, according to the FDA protocol. During this period, a placebo control formulation with no antiperspirancy effect was applied twice a day to both axillae. Treatments were applied once daily for four consecutive days (numbered D1 to D4). On D1, the baseline perspiration rate was determined before the antiperspirant formulations were applied. All the volunteers remained under hotroom conditions for a 40-minute warm-up period, divided into 2 periods of 20 minutes each. The term “hotroom condition” is the controlled environment (temperatures at 38° C.±1° C., and relative humidity of 35%±5%) established by the FDA standard protocol to thermally induce volunteer's perspiration. Cotton absorbent pads (Sussex®) were preweighed (P1) and placed in both axillae of each volunteer. At the end of the warm-up period, the perspiration collected on the absorbent pads was again weighed (P2) and the perspiration rates were obtained through gravimetric measurements (according to the formula P2-P1). According to FDA protocol, volunteers must produce at least 100 milligrams of sweat from the placebo control axilla in a 20-minute collection in the controlled environment, and at least one volunteer must produce more than 600 milligrams of sweat. Commercial menthol (YSC), Mentha essential oil (YSC) and Eucalyptus essential oil (Inter-Link) were presented as components of the antiperspirant formulations as described in the Example 1. Both commercial Mentha and Eucalyptus essential oils, which present menthol and eucalyptol, respectively, as the major components, were submitted to a GC-MS analysis in order to determine the appropriate amount of essential oils to be used to manufacture the antiperspirant compositions. In each treatment group as listed below, one of the antiperspirant formulations were applied to one axilla of the volunteers. […] Safety and tolerance were measured by assessment of visual effects and dermal irritancy, and subjective assessment of tolerance. […]"}, "[2]": {"test_system": "axilla odor of volunteers", "assay": "Evaluation of deodorant effect (sniff test)", "format": "in vivo, human", "settings": "at D4 vs D1, odor score 0-10 by two trained judges", "method": "The volunteers were submitted to a “rest period” as described previously in Example 2. The odor was evaluated for the volunteers at D1 and at D4. At D1 the evaluation was made before the application of the test formulations, after the 20-minute warm-up period, and only the volunteers with starting values not less than 2 were included in the test. The odor evaluation scoring system was based on a range of axilla odor from no malodor (0), to moderate malodor (5), to extremely strong malodor (10). Two trained judges, familiar with the procedures and rating system, subjectively made the odor measurements of both axillae of each volunteer. The data correspond to the individual subject scores by the two trained judges and to the individual average."}}, "data": [{"smiles": "CC1CCC(C(C)C)C(O)C1", "note": "(centres unmarked) [menthol]", "values": [{"measurement": "reduction in sweat production", "setting": "[1]; Group 1, one hour after application", "value": "61.4%±23.1"}, {"measurement": "reduction in sweat production", "setting": "[1]; Group 2, two hours after application", "value": "63.7%±21.8"}, {"measurement": "reduction in sweat production", "setting": "[1]; Group 3, four hours after application", "value": "63.7%±21.8"}, {"measurement": "reduction in sweat production", "setting": "[1]; Group 3, four hours after application, listed as menthol (YSC)", "value": "75%±12.1"}, {"measurement": "improvement in axilla odor", "setting": "[2]", "value": "6.4%±25.3"}]}]}
